Data: ChEMBL document CHEMBL3885881, “DrugMatrix”

Species: Rattus norvegicus
Test: DrugMatrix - Regimen: Daily Repeat
Assay type: toxicity, organism-based, Sprague-Dawley
Set-up: regimen Daily Repeat, gender Male, age 6-8 weeks
Details: in vivo, po, route oral GAVAGE, vehicle 100 % WATER; for ABSOLUTE BASOPHIL / ABSOLUTE EOSINOPHIL / ABSOLUTE LYMPHOCYTE / ABSOLUTE MONOCYTE / ABSOLUTE SEGMENTED NEUTROPHIL / BASOPHIL / EOSINOPHIL / ERYTHROCYTE COUNT / HEMATOCRIT / HEMOGLOBIN / LEUKOCYTE COUNT / LYMPHOCYTE / MEAN CORPUSCULAR HEMOGLOBIN / MEAN CORPUSCULAR HEMOGLOBIN CONCENTRATION / MONOCYTE / NEUTROPHIL / NUCLEATED RED BLOOD CELLS / PLATELET COUNT: tissue Blood; for ALANINE AMINOTRANSFERASE / ALBUMIN / ALKALINE PHOSPHATASE / ASPARTATE AMINOTRANSFERASE / BLOOD UREA NITROGEN / CARBON DIOXIDE / CHLORIDE / CREATINE PHOSPHOKINASE / CREATININE / GLUCOSE / LACTATE DEHYDROGENASE / LIPASE / PHOSPHORUS / POTASSIUM / SODIUM / TOTAL BILIRUBIN / TOTAL PROTEIN / URIC ACID / CHOLESTEROL: tissue Plasma
[1] = 35 mg/kg, 120 h, dose level Low, time 5 day
[2] = 1300 mg/kg, 72 h, dose level High, time 3 day
[3] = 1300 mg/kg, 120 h, dose level High, time 5 day

## Nc1ccn([C@@H]2CS[C@H](CO)O2)c(=O)n1 [LAMIVUDINE]
[1]
  ABSOLUTE BASOPHIL: 0 CELLS/uL
  ABSOLUTE EOSINOPHIL: 0 CELLS/uL
  ABSOLUTE LYMPHOCYTE: 6530 CELLS/uL
  ABSOLUTE MONOCYTE: 98.67 CELLS/uL
  ABSOLUTE SEGMENTED NEUTROPHIL: 638 CELLS/uL
  BASOPHIL: 0%
  EOSINOPHIL: 0%
  ERYTHROCYTE COUNT: 5.57 x10E6/uL
  HEMATOCRIT: 34.73%
  HEMOGLOBIN: 13.6 G/DL
  LEUKOCYTE COUNT: 7.27 x10E3/uL
  LYMPHOCYTE: 89.67%
  MEAN CORPUSCULAR HEMOGLOBIN: 24.43 pg
  MEAN CORPUSCULAR HEMOGLOBIN CONCENTRATION: 39.2 G/DL
  MONOCYTE: 1.33%
  NEUTROPHIL: 9%
  NUCLEATED RED BLOOD CELLS: 0.33 /100WBC
  PLATELET COUNT: 1079.33 x10E3/uL
  ALANINE AMINOTRANSFERASE: 45.33 u/L
  ALBUMIN: 4.1 G/DL
  ALKALINE PHOSPHATASE: 359.67 u/L
  ASPARTATE AMINOTRANSFERASE: 82.67 u/L
  BLOOD UREA NITROGEN: 16.67 mg/dL
  CARBON DIOXIDE: 31.33 mmol/L
  CHLORIDE: 100.33 MEQ/L
  CREATINE PHOSPHOKINASE: 391.67 u/L
  CREATININE: 0.16 mg/dL
  GLUCOSE: 152 mg/dL
  LACTATE DEHYDROGENASE: 141.33 u/L
  LIPASE: 8.33 u/L
  PHOSPHORUS: 11.47 mg/dL
  POTASSIUM: 5.48 MEQ/L
  SODIUM: 144.47 MEQ/L
  TOTAL BILIRUBIN: 0.2 mg/dL
  TOTAL PROTEIN: 6.13 G/DL
  URIC ACID: 0.6 mg/dL
[2]
  ABSOLUTE BASOPHIL: 0 CELLS/uL
  ABSOLUTE EOSINOPHIL: 0 CELLS/uL
  ABSOLUTE LYMPHOCYTE: 11276.67 CELLS/uL
  ABSOLUTE MONOCYTE: 81 CELLS/uL
  ABSOLUTE SEGMENTED NEUTROPHIL: 842.33 CELLS/uL
  BASOPHIL: 0%
  EOSINOPHIL: 0%
  ERYTHROCYTE COUNT: 5.54 x10E6/uL
  HEMATOCRIT: 34.33%
  HEMOGLOBIN: 13.53 G/DL
  LEUKOCYTE COUNT: 12.2 x10E3/uL
  LYMPHOCYTE: 92.33%
  MEAN CORPUSCULAR HEMOGLOBIN: 24.43 pg
  MEAN CORPUSCULAR HEMOGLOBIN CONCENTRATION: 39.4 G/DL
  MONOCYTE: 0.67%
  NEUTROPHIL: 7%
  NUCLEATED RED BLOOD CELLS: 0.33 /100WBC
  PLATELET COUNT: 1155.33 x10E3/uL
  ALANINE AMINOTRANSFERASE: 45.67 u/L
  ALBUMIN: 4 G/DL
  ALKALINE PHOSPHATASE: 373.67 u/L
  ASPARTATE AMINOTRANSFERASE: 80 u/L
  BLOOD UREA NITROGEN: 10.67 mg/dL
  CARBON DIOXIDE: 27 mmol/L
  CHLORIDE: 102.33 MEQ/L
  CHOLESTEROL: 78.67 mg/dL
  CREATINE PHOSPHOKINASE: 337 u/L
  CREATININE: 0.17 mg/dL
  GLUCOSE: 141 mg/dL
  LACTATE DEHYDROGENASE: 297.67 u/L
  LIPASE: 9.67 u/L
  PHOSPHORUS: 11.83 mg/dL
  POTASSIUM: 6.19 MEQ/L
  SODIUM: 143.47 MEQ/L
  TOTAL BILIRUBIN: 0.13 mg/dL
  TOTAL PROTEIN: 5.8 G/DL
  URIC ACID: 1.57 mg/dL
[3]
  ABSOLUTE BASOPHIL: 0 CELLS/uL
  ABSOLUTE EOSINOPHIL: 61 CELLS/uL
  ABSOLUTE LYMPHOCYTE: 14479 CELLS/uL
  ABSOLUTE MONOCYTE: 224.33 CELLS/uL
  ABSOLUTE SEGMENTED NEUTROPHIL: 1569 CELLS/uL
  BASOPHIL: 0%
  EOSINOPHIL: 0.33%
  ERYTHROCYTE COUNT: 5.68 x10E6/uL
  HEMATOCRIT: 36.2%
  HEMOGLOBIN: 13.93 G/DL
  LEUKOCYTE COUNT: 16.33 x10E3/uL
  LYMPHOCYTE: 88.67%
  MEAN CORPUSCULAR HEMOGLOBIN: 24.5 pg
  MEAN CORPUSCULAR HEMOGLOBIN CONCENTRATION: 38.5 G/DL
  MONOCYTE: 1.33%
  NEUTROPHIL: 9.67%
  NUCLEATED RED BLOOD CELLS: 0 /100WBC
  PLATELET COUNT: 1204.33 x10E3/uL
  ALANINE AMINOTRANSFERASE: 50 u/L
  ALBUMIN: 3.9 G/DL
  ALKALINE PHOSPHATASE: 303.67 u/L
  ASPARTATE AMINOTRANSFERASE: 84.33 u/L
  BLOOD UREA NITROGEN: 15 mg/dL
  CARBON DIOXIDE: 24.33 mmol/L
  CHLORIDE: 102 MEQ/L
  CHOLESTEROL: 70 mg/dL
  CREATINE PHOSPHOKINASE: 295.33 u/L
  CREATININE: 0.2 mg/dL
  GLUCOSE: 162.67 mg/dL
  LACTATE DEHYDROGENASE: 239 u/L
  LIPASE: 11 u/L
  PHOSPHORUS: 11.9 mg/dL
  POTASSIUM: 6.04 MEQ/L
  SODIUM: 143.87 MEQ/L
  TOTAL BILIRUBIN: 0.17 mg/dL
  TOTAL PROTEIN: 5.73 G/DL
  URIC ACID: 1.53 mg/dL
